Source: publication PMC3176662 (Journal of biomolecular screening, 2011)

Assays:
[1] = target: T1, Francisella tularensis GyrB (ATP binding domain) (Francisella tularensis subsp. tularensis, UniProt Q5NHE7); test: biochemical
[2] = target: E. coli gyrase A2B2 heterotetramer (Escherichia coli, UniProt P0AES6); test: Gyrase activity; type: biochemical; conditions: 50 μM compound, 0.5 μg relaxed pHOT1 DNA, 1 h 37 °C
[3] = target: T1, Francisella tularensis GyrB (ATP binding domain); test: biochemical; conditions: 1 h, read-out: decrease of binding of Novo-TRX to GyrB

T1 sequence (Q5NHE7 1-805): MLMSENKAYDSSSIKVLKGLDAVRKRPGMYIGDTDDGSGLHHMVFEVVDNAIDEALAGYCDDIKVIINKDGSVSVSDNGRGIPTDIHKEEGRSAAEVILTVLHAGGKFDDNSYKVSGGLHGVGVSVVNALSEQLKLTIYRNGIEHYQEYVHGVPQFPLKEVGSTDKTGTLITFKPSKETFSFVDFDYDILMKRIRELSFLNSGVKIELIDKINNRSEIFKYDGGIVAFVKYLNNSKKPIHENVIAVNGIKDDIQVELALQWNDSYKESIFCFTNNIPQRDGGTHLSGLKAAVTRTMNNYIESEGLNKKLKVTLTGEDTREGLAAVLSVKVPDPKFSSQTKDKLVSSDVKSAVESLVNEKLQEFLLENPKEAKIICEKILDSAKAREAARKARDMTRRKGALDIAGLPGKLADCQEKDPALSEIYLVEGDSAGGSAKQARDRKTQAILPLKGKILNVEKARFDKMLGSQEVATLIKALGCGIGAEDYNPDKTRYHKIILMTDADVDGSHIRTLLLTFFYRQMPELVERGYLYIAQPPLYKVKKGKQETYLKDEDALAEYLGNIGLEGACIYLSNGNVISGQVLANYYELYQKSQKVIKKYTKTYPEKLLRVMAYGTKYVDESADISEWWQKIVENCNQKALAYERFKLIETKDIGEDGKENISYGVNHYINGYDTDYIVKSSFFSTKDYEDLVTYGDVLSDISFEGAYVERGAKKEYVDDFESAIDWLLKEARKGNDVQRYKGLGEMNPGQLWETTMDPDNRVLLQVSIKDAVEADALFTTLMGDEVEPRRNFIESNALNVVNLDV

Row | Structure (SMILES) | IC50 [1] [µM] | potency relative to novobiocin in the F. tularensis system (fold less potent) [1] | inhibition of supercoiling of relaxed DNA [2] | inhibition at 10 µM [3] [%]
1 | CCNC(=O)Nc1nc2cc(-c3cccnc3)cc(-c3ccccn3)c2[nH]1 [Vertex-13, N-ethyl-N′-[7-(2-pyridinyl)-5-(3-pyridinyl)-1H-benzimidazol-2-yl]-urea] | 0.393 | approximately 10 fold | – | –
2 | COc1cccc2c1C(=O)c1c(O)c3c(c(O)c1C2=O)C[C@@](O)(C(C)=O)C[C@@H]3O[C@H]1C[C@H](N)[C@H](O)[C@H](C)O1 [daunorubicin] | 1.46 | – | less clear | –
3 | COc1cccc2c1C(=O)c1c(O)c3c(c(O)c1C2=O)C[C@@](O)(C(=O)CO)C[C@@H]3O[C@H]1C[C@H](N)[C@H](O)[C@H](C)O1 [doxorubicin] | 0.31 | – | inhibit supercoiling to the level of the no-gyrase control | –
4 | COc1cccc2c1C(=O)c1c(O)c3c(c(O)c1C2=O)C[C@@](O)(C(=O)CO)C[C@@H]3O[C@H]1C[C@H](N)[C@@H](O)[C@H](C)O1 [epirubicin] | 1.27 | – | inhibit supercoiling to the level of the no-gyrase control | –
5 | CC(=O)[C@]1(O)Cc2c(O)c3c(c(O)c2[C@@H](O[C@H]2C[C@H](N)[C@H](O)[C@H](C)O2)C1)C(=O)c1ccccc1C3=O [idarubicin] | 1.58 | – | less clear | –
6 | CO[C@@H]1[C@@H](OC(N)=O)[C@@H](O)[C@H](Oc2ccc3c(O)c(NC(=O)c4ccc(O)c(CC=C(C)C)c4)c(=O)oc3c2C)OC1(C)C [novobiocin] | – | – | – | > 40
